Data taken from patent US11524012B1, “Quinolone analogs and their salts, compositions, and method for their use” (Senhwa Biosciences, Inc., priority 2018, dated 2022).

Key:
[1] = test system: various cancer cell lines; assay: Cell viability by Alamar Blue assay; assay type: cell-based
Experimental: The effect of Compound I on cell viability was assessed by Alamar Blue assay of metabolic activity in various cancer cell lines.

[2] = Pharmacokinetic parameters in preclinical species; assay type: in vivo, dogs; conditions: Dog, IV, 5.8 mg/kg, mean of 3 animals
[3] = Plasma protein binding; assay type: in vitro ADME, human; conditions: independent of drug concentration
Experimental: (§1) The plasma concentrations in the mouse are magnitude higher than in rat, dog and monkey. These trends are qualitatively similar to those seen in the plasma protein binding assays. Compound I is highly bound (>99%) to human plasma proteins, and this binding is independent of drug concentration. Compound I (1 μM) partitioning to blood cells compared to plasma was evaluated in human whole blood, and was determined to prefer plasma (˜65%) to the cellular compartment (˜30%).

[4] = Partitioning to blood cells compared to plasma; assay type: in vitro ADME; conditions: 1 μM, human whole blood
Experimental: as §1

[5] = Single and repeat dose toxicology (IV); assay type: in vivo, rats
Text: The non-clinical safety program included single and repeat dose toxicology studies in rats and dogs. These acute and subacute dose-ranging studies conducted in rats and dogs permitted the characterization of the toxicity of single and multiple doses of IV administration of Compound I using various dosing schedules, and also provided the rationale for the selection of doses to be studied in the single dose study with recovery after a 21-day non-dosing period in these species.
At higher dose exposures, a hypersensitivity-like reaction consistent with mast cell degranulation was also encountered.

[6] = Pharmacokinetic study in patients with advanced hematologic cancers (IV infusion, LC/MS/MS); assay type: in vivo, human; conditions: for AUC(0-t) / Cmax / Tmax / half-life: human, plasma
Experimental: Pharmacokinetic studies and dose escalation studies were conducted in adult patients with advanced hematologic cancers at 25, mg/m^2 (ready-to-use formulation), 50 mg/m^2 (ready-to-use formulation), 100 mg/m^2 (ready-to-use formulation), 170 mg/m^2 (lyophilized formulation), and 250 mg/m^2 (lyophilized formulation) dose levels of Compound I. Each patient received one dose over 1 hour by IV infusion, once every three weeks±2 days (Cohort 1).
Dose escalations were planned in 7 cohorts (25-450 mg/m2), in an accelerated design, with change to 3+3 design based on predefined toxicity criteria. 16 patients (6 myeloma, 2 Hodgkin lymphoma, 6 Non Hodgkin lymphoma (NHL), 1 TPLL, 1 CLL) were treated in 5 cohorts (25-250 mg/m2), for a median of 2 (1-18) cycles.
250 mg/m^2 dose of Compound I was prepared according to Example 2 (lyophilized composition with mannitol) and reconstituted with 5% glucose in sterile water for IV infusion.
Levels of Compound I in patient's plasma were analyzed by liquid chromatography tandem mass spectrometry (LC/MS/MS) assay. Experimental procedures of the validated methods are summarized below.
Calibration standards and QC samples were prepared by spiking the appropriate working solution and the internal standard spiking solution into blank human plasma (NaHep). Each sample was extracted with ACN and then centrifuged at 13700×g (12000 rpm) for 5 minutes. The extracted top layer was transferred to another disposable glass tube and evaporated to complete dryness in a water-bath at 40° C. under a stream of air or nitrogen. The dried sample was reconstituted with a solution of 50:50:0.1 (v/v) mixture of ACN:deionized water:formic acid. The reconstituted sample was transferred to a LC vial for LC/MS/MS analysis.
The analytical method parameters are summarized below: • Isocratic elution using 7:3 (v/v) ACN: 75 mM Ammonium Formate (pH 2.5) as the mobile phase • Flow rate: 0.5 mL/min • Run time: Originally validated at 10 min; later validated at 6 min in this study • Column: Zorbax 300-SCX, 3×50 mm, […] • Injection volume: 5 μL • MS mode: ESI positive MRM mode

[7] = 25 mg/m^2 (ready-to-use formulation), 1 hour IV infusion, first dose (first cycle), N 3
[8] = 50 mg/m^2 (ready-to-use formulation), 1 hour IV infusion, first dose (first cycle), N 4
[9] = 100 mg/m^2 (ready-to-use formulation), 1 hour IV infusion, first dose (first cycle), N 4
[10] = 170 mg/m^2 (lyophilized formulation), 1 hour IV infusion, first dose (first cycle), N 3
[11] = 250 mg/m^2 (lyophilized formulation), 1 hour IV infusion, first dose (first cycle), N 2

## Cc1cnc(CNC(=O)c2c(=O)c3ccc(N4CCCN(C)CC4)nc3n3c2sc2ccccc23)cn1 [Compound I, 2-(4-Methyl-[1,4]diazepan-1-yl)-5-oxo-5H-7-thia-1,11b-diaza-benzo[c]fluorene-6-carboxylic acid (5-methyl-pyrazin-2-ylmethyl)-amide]
[1]; A7, Melanoma
  EC50: 23 nM
[1]; BJ-hTERT, Normal
  EC50: 5170 nM
[1]; CCD-1058Sk, Normal
  EC50: 4710 nM
[1]; CCD-1068Sk, Normal
  EC50: 5070 nM
[1]; CCD-1094Sk, Normal
  EC50: 4810 nM
[1]; CD-1096Sk, Normal
  EC50: 5260 nM
[1]; Homo sapiens, A549, A549, Lung
  EC50: 4900 nM
[1]; Homo sapiens, A-375, A375, Melanoma
  EC50: 58 nM
[1]; Homo sapiens, BT-20, BT-20, Breast
  EC50: 335 nM
[1]; Homo sapiens, BT-474, BT-474, Breast
  EC50: 86 nM
[1]; Homo sapiens, BXPC-3, BxPC-3, Pancreatic
  EC50: 664 nM
[1]; Homo sapiens, COLO 205, COLO-205, Colon
  EC50: 96 nM
[1]; Homo sapiens, Daudi, Lymphoma
  EC50: 142 nM
[1]; Homo sapiens, EOL1, EOL-1, Leukemia
  EC50: 3 nM
[1]; Homo sapiens, HCT-116, HCT-116, Colon
  EC50: 164 nM
[1]; Homo sapiens, HL60/MX2, HL60/MX2, Leukemia
  EC50: 147 nM
[1]; Homo sapiens, HL-60, HL60, Leukemia
  EC50: 83 nM
[1]; Homo sapiens, HT-29, HT-29, Colon
  EC50: 741 nM
[1]; Homo sapiens, Hs-578T, Hs 578.T, Breast
  EC50: 1650 nM
[1]; Homo sapiens, Jurkat, Leukemia
  EC50: 64 nM
[1]; Homo sapiens, K562, K562, Leukemia
  EC50: 104 nM
[1]; Homo sapiens, LNCaP, Prostate
  EC50: 5500 nM
[1]; Homo sapiens, MCF7, MCF 7, Breast
  EC50: 347 nM
[1]; Homo sapiens, MDA-MB-175-VII, Breast
  EC50: 2780 nM
[1]; Homo sapiens, MDA-MB-231, MDA-MB-231, Breast
  EC50: 83 nM
[1]; Homo sapiens, MDA-MB-361, MDA-MB-361, Breast
  EC50: 2100 nM
[1]; Homo sapiens, MDA-MB-453, MDA-MB-453, Breast
  EC50: 140 nM
[1]; Homo sapiens, MDA-MB-468, MDA-MB-468, Breast
  EC50: 171 nM
[1]; Homo sapiens, MIA PaCa-2, MIA PaCa-2, Pancreatic
  EC50: 74 nM
[1]; Homo sapiens, MOLT-3, MOLT-3, Leukemia
  EC50: 6 nM
[1]; Homo sapiens, MV4-11, MV 4;11, Leukemia
  EC50: 12 nM
[1]; Homo sapiens, NCI-H460, NCI-H460, Lung
  EC50: 38 nM
[1]; Homo sapiens, NCI-H520, NCI-H520, Lung
  EC50: 70 nM
[1]; Homo sapiens, NCI-H1299, NCI-H1299, Lung
  EC50: 55 nM
[1]; Homo sapiens, NCI-H2170, NCI-H2170, Lung
  EC50: 194 nM
[1]; Homo sapiens, PANC-1, PANC-1, Pancreatic
  EC50: 5000 nM
[1]; Homo sapiens, RPMI-8226, RPMI-8226, Myeloma
  EC50: 68 nM
[1]; Homo sapiens, Raji, Lymphoma
  EC50: 133 nM
[1]; Homo sapiens, Ramos, Lymphoma
  EC50: 66 nM
[1]; Homo sapiens, SAOS-2, Saos-2, Osteosarcoma
  EC50: 5000 nM
[1]; Homo sapiens, SK-BR-3, SKBr3, Breast
  EC50: 134 nM
[1]; Homo sapiens, SK-MEL-24, SK-MEL-24, Melanoma
  EC50: 147 nM
[1]; Homo sapiens, SK-MES-1, SK-MES-1, Lung
  EC50: 1260 nM
[1]; Homo sapiens, SK-OV-3, SK-OV-3, Ovarian
  EC50: 78 nM
[1]; Homo sapiens, SUM149PT, SUM 149PT, IBC (Invasive ductal breast carcinoma (inflammatory))
  EC50: 751 nM
[1]; Homo sapiens, T47D, Breast
  EC50: 2340 nM
[1]; Homo sapiens, THP-1, THP-1, Leukemia
  EC50: 47 nM
[1]; Homo sapiens, U2OS, Osteosarcoma
  EC50: 281 nM
[1]; Homo sapiens, UACC-812, UACC-812, Breast
  EC50: 1830 nM
[1]; Homo sapiens, ZR-75-1, ZR-75-1, Breast
  EC50: 123 nM
[1]; Hs 605.T, Breast
  EC50: 116 nM
[1]; NK92mi, Lymphoma
  EC50: 165 nM
[1]; PC-3, Prostate
  EC50: 1100 nM
[1]; SEM, Leukemia
  EC50: 18 nM
[1]; SR, Leukemia
  EC50: 5 nM
[1]; SUM190PT, SUM 190PT, IBC (Invasive ductal breast carcinoma (inflammatory))
  EC50: 583 nM
[1]; multiple cancer cell lines
  antiproliferative activity (in words): broad spectrum antiproliferative activity
[1]; normal cells
  activity in normal cells (in words): significantly less active
[2]
  CIs: 1,896 mL/hr/kg
[2]; plasma
  Cmax: 861 ng/mL
  half-life: 9 h
[2]; plasma, read-out: AUC24hr
  AUC(0-t): 2950 ng·h/mL
[2]; plasma, read-out: Vss
  Vd: 11.7 L/kg
[3]
  bound to human plasma proteins: > 99%
[4]
  partitioning to plasma: ~65%
  partitioning to the cellular compartment: ~30%
[5]; following an IV dose
  reversibility of dose limiting toxicity: spontaneously reversible within three weeks
[5]; single and multiple IV doses
  dose limiting toxicity: decreased blood cell count in leukocyte, erythrocyte and megakaryocyte cell lines
[6]; 25-250 mg/m^2
  AUClast dose proportionality (in words): not dose proportional
[6]; [7]
  AUC(0-t): 2060 ng·h/mL
  Cmax: 297 ng/mL
[6]; 25 mg/m^2 (ready-to-use formulation), 1 hour IV infusion, first dose (first cycle), N 3, median
  Tmax: 1 h
[6]; 25 mg/m^2 (ready-to-use formulation), 1 hour IV infusion, first dose (first cycle), N 3, read-out: T1/2 (converted)
  half-life: 23.2 h
[6]; [8]
  AUC(0-t): 3650 ng·h/mL
  Cmax: 384 ng/mL
[6]; 50 mg/m^2 (ready-to-use formulation), 1 hour IV infusion, first dose (first cycle), N 4, median
  Tmax: 0.75 h
[6]; 50 mg/m^2 (ready-to-use formulation), 1 hour IV infusion, first dose (first cycle), N 4, read-out: T1/2 (converted)
  half-life: 39.8 h
[6]; [9]
  AUC(0-t): 10100 ng·h/mL
  Cmax: 636 ng/mL
[6]; 100 mg/m^2 (ready-to-use formulation), 1 hour IV infusion, first dose (first cycle), N 4, median
  Tmax: 0.5 h
[6]; 100 mg/m^2 (ready-to-use formulation), 1 hour IV infusion, first dose (first cycle), N 4, read-out: T1/2 (converted)
  half-life: 58.4 h
[6]; [10]
  AUC(0-t): 16800 ng·h/mL
  Cmax: 1710 ng/mL
[6]; 170 mg/m^2 (lyophilized formulation), 1 hour IV infusion, first dose (first cycle), N 3, median
  Tmax: 0.52 h
[6]; 170 mg/m^2 (lyophilized formulation), 1 hour IV infusion, first dose (first cycle), N 3, read-out: T1/2 (converted)
  half-life: 45.5 h
[6]; [11]
  AUC(0-t): 27100 ng·h/mL
  Cmax: 1360 ng/mL
[6]; 250 mg/m^2 (lyophilized formulation), 1 hour IV infusion, first dose (first cycle), N 2, median
  Tmax: 1 h
[6]; 250 mg/m^2 (lyophilized formulation), 1 hour IV infusion, first dose (first cycle), N 2, read-out: T1/2 (converted)
  half-life: 83.3 h
[6]; first dose, 25-250 mg/m^2 IV infusion over 1 hour, read-out: Mean elimination half-life
  half-life: 23.2 to 83.3 h
